One series has as its system rhinovirus type 39. As to the kind of experiment: Study 843-203: experimentally induced human rhinovirus respiratory infection in healthy adults, antiviral and clinical efficacy. It is filed as in vivo. As to the method: Subjects were confined to a clinical facility with on-site medical surveillance from Day −2 through Day 5; outpatient follow-up visits were conducted on Days 5-7. On Day −1, 24 hours before administration of the first dose of study drug, each subject received an intranasal inoculation of 100-300 tissue culture infective dose 50% (TCID50) rhinovirus type 39. Nasal wash specimens were collected pre-inoculation and once or twice daily at predetermined time points on Days 1-7 for virologic determinations. Nasal mucus weights were determined daily through Day 4. The presence and severity of clinical symptoms were assessed throughout the study period. […] One subject in the pleconaril BID nasal spray group had study drug interrupted temporarily due to “blood in nasal mucus” observed on Day 1; this event was considered mild and resolved without treatment, and the subject completed BID dosing on Days 2 and 3.
Primary Endpoint: Log-transformed virus titers from serial nasal wash samples in Study 843-203 are shown in FIG. 2 for virology evaluable subjects (i.e., those subjects with a pre-inoculation serum neutralizing antibody titer to rhinovirus type 39 ˜1:2 and reverse transcriptase polymerase chain reaction [RT-PCR] and culture negative nasal wash sample and at least one post baseline nasal wash sample that was RT-PCR or culture positive). At the time of maximum viral titers (Day 2 AM) in the combined vehicle groups, median viral titers in each pleconaril group were 0.78-1.26 log lower than vehicle groups, and viral titers in the combined pleconaril BID/TID groups were 1 log lower than the vehicle groups.

For series [1] the following is noted: 12 mg per day nasal spray; cited from earlier work.
Series [2] relates to human respiratory picornavirus. As to conditions: oral dosage form; cited from earlier work.
For series [3] the following is noted: 25° C.; cited from earlier work.
Series [4] in a line: Study 843-203: safety and tolerability in healthy adults. The format is in vivo, human. The following applies: healthy volunteers.
Another series deals with CYP 3A. The following applies: oral delivery, 200-400 mg dose level, cited from earlier work.

Consider one compound from US20160193188A1, “METHODS AND COMPOSITIONS FOR INCREASING THE EFFECTIVENESS OF ANTIVIRAL AGENTS” (ANTIVIRUS THERAPEUTICS, priority 2013, published 2016).

Like-named read-outs stand apart in the source and are kept apart here. Where only a bound is given, the exact number is not on record here.

Consider `Cc1cc(CCCOc2c(C)cc(-c3noc(C(F)(F)F)n3)cc2C)on1` [pleconaril, 3-{3,5-dimethyl-4-[3-(3-methylisoxazol-5-yl)propoxy]phenyl}-5-(trifluoromethyl)-1,2,4-oxadiazole], for which the “repeated measures analysis of viral titers, between-group comparison” value in the series with rhinovirus type 39 (Day 1 PM to Day 7) is reported as “not significant”. The “median log-transformed viral titers vs vehicle groups” value in the series with rhinovirus type 39 (each pleconaril treatment group (intranasal and oral), initiation of study drug through Day 3 AM) is recorded as “lower than the vehicle groups at all measured time points”. Moreover, in the series on rhinovirus type 39 (nasal and oral pleconaril groups), the “nasal mucus weights vs combined vehicle controls” value was “significantly lower nasal mucus weights”. In addition, the benefit vs. vehicle result in the series on rhinovirus type 39 (nasal and oral pleconaril groups, through day 3 post infection) is “showed benefit vs. vehicle”. Moreover, the “effect on common cold symptom duration and viral titers” value in the series with rhinovirus type 39 (nasal spray BID, nasal spray TID or oral) was “effective in reducing common cold symptom duration and viral titers”. In addition, the “median viral titers lower than vehicle groups” value in the series on rhinovirus type 39 (nasal wash, Day 2 AM (time of maximum viral titers), each pleconaril group) was 0.78-1.26 log. Further, the “viral titers lower than vehicle groups” value in the series with rhinovirus type 39 (nasal wash, Day 2 AM, combined pleconaril BID/TID groups) came to 1 log. Besides, in series [1], the “clinical/antiviral effect compared with 400 mg oral dose” value is listed as “roughly similar clinical/antiviral effect” and the systemic exposure entry is on record as “without any significant systemic exposure”. Besides, in series [2], the “activity against human respiratory picornavirus” value is recorded as “broad activity”. Moreover, the solubility in water in series [3] was below 20 ng/mL. Moreover, the serious adverse events result in series [4] is reported as “No serious adverse events”. Besides, the “CYP 3A / CYP 3A4 induction” value in the series with CYP 3A is given as “inducer of CYP 3A4”. The “CYP 3A / CYP 3A4 induction” value in the series on CYP 3A (listed as Pleconaril) is listed as “induction of CYP 3A”.
